The values below come from ChEMBL document CHEMBL1201862, “PubChem BioAssay data set” (2004).

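Interpolation was linear, between the two tested concentrations surrounding the appropriate level; five concentrations were tested over 48 hours in 96-well plates. GI50 = concentration required for 50% inhibition of growth.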 The source made the active and inactive calls. Cut-off read from the data, not from the text of the source: active = GI50 up to about 1.1 µM and inactive = higher.

Test systems include LXFL 529; LOX IMVI; TK-10; OVCAR-8; UACC-257; SNB-78; SK-MEL-2; K562; HCT-15; SK-MEL-28; UO-31; NCI-H460; COLO 205; SN12C; CAKI-1; Malme-3M; NCI-H226; RXF 393; MDA-N.
What all share (assay): NCI anticancer screen, dose series, 48 h

With `CCOC(=O)NC(=O)c1cn(CCN2CCN(C(=O)CCCCCCCCCCNc3ncnc4c3ncn4C3OC(CO)C(O)C3O)CC2)c(=O)[nH]c1=O` (stereo not given), the GI50 in the assay on LXFL 529, in the assay with LOX IMVI, in the assay on TK-10, with OVCAR-8, in the assay on UACC-257 and in the assay on SNB-78 was > 100 µM (inactive) each time. For the same compound, the GI50 in the assay on SK-MEL-2 is > 100 µM (inactive); with K562 it was > 100 µM (inactive); with HCT-15, greater than 100 µM; in the assay with SK-MEL-28, > 100 µM (inactive); in the assay with UO-31, > 100 µM (inactive); with NCI-H460, > 100 µM (inactive). For the same compound, the GI50 in the assay on COLO 205, in the assay with SN12C, with CAKI-1 and in the assay with Malme-3M was > 100 µM (inactive) in each case.
Turning to `CCOC(=O)Cn1c(=O)n(C)c(=O)c2c1ncn2Cc1ccccc1`, the GI50 with LXFL 529, in the assay with TK-10, with OVCAR-8, in the assay with SNB-78, in the assay on SK-MEL-2 and in the assay with K562 was > 100 µM (inactive) each time. Also, the GI50 with HCT-15 was greater than 100 µM; with SK-MEL-28 it was > 100 µM (inactive); in the assay on UO-31 it was > 100 µM (inactive); in the assay with NCI-H226, > 100 µM (inactive); with NCI-H460 it was > 100 µM (inactive); in the assay with COLO 205, > 100 µM (inactive). Also, the GI50 in the assay on SN12C, in the assay with CAKI-1 and in the assay on Malme-3M was > 100 µM (inactive) each time.
Take `CC(Oc1ccc(OCC2CCCCC2)cc1)C(=O)NCCO` (stereo not given): the GI50 in the assay on LXFL 529 is > 100 µM (inactive); in the assay on LOX IMVI, 26.7 µM (inactive); in the assay with TK-10 it was > 100 µM (inactive); in the assay with OVCAR-8, > 100 µM (inactive); in the assay on UACC-257, 49.7 µM (inactive); with SNB-78, > 100 µM (inactive). Further, the GI50 in the assay with SK-MEL-2 is > 100 µM (inactive); in the assay on RXF 393, > 100 µM (inactive); in the assay with K562, > 100 µM (inactive); in the assay on HCT-15, greater than 100 µM; with SK-MEL-28, > 100 µM (inactive); with UO-31, 56.4 µM (inactive). Moreover, the GI50 with NCI-H226 is > 100 µM (inactive); in the assay on NCI-H460 it was 52.1 µM (inactive); in the assay on SN12C, > 100 µM (inactive); in the assay with Malme-3M, > 100 µM (inactive).
With `OCCCCn1cnc2c(O)ncnc21`, the GI50 in the assay with LXFL 529, in the assay with LOX IMVI, in the assay on TK-10, in the assay with OVCAR-8, in the assay with UACC-257 and in the assay with SNB-78 was > 100 µM (inactive) throughout. Besides, the GI50 with RXF 393 was > 100 µM (inactive); with K562, > 100 µM (inactive); with HCT-15, greater than 100 µM; with SK-MEL-28, > 100 µM (inactive); in the assay with UO-31 it was > 100 µM (inactive); in the assay on NCI-H226, > 100 µM (inactive). Also, the GI50 in the assay on NCI-H460, in the assay with COLO 205, in the assay with SN12C, with CAKI-1 and with Malme-3M was > 100 µM (inactive) in each case.
For the compound `CCOC(=O)C(/C(=N/NC(=O)OC)C(=O)Nc1ccc(C(C)=O)cc1)c1cnc2ccccc2n1` (stereo not given), the GI50 with LXFL 529, in the assay with LOX IMVI, in the assay on TK-10, in the assay on OVCAR-8, in the assay on UACC-257 and with SNB-78 was > 100 µM (inactive) throughout. In addition, the GI50 in the assay on RXF 393 was > 100 µM (inactive); in the assay on K562 it was > 100 µM (inactive); in the assay with HCT-15, greater than 100 µM; in the assay on SK-MEL-28, > 100 µM (inactive); with UO-31 it was > 100 µM (inactive); in the assay with NCI-H226 it was > 100 µM (inactive). For the same compound, the GI50 in the assay with NCI-H460, in the assay on COLO 205, in the assay on SN12C, in the assay on CAKI-1 and in the assay with Malme-3M was > 100 µM (inactive) each time.
Take `C=CCCc1cc(OC)ccc1CN(C)C(C)(C)CO`: the GI50 in the assay on LOX IMVI, in the assay on TK-10, in the assay on OVCAR-8, in the assay with UACC-257, with SNB-78 and with SK-MEL-2 was > 100 µM (inactive) in each case. The GI50 is > 100 µM (inactive) in the assay with RXF 393; > 100 µM (inactive) in the assay on K562; greater than 100 µM in the assay on HCT-15; > 100 µM (inactive) in the assay on SK-MEL-28; > 100 µM (inactive) in the assay with NCI-H460; > 100 µM (inactive) in the assay on COLO 205. Also, the GI50 with SN12C, with CAKI-1 and in the assay on Malme-3M was > 100 µM (inactive) throughout.
Take `O=C(CCc1n[nH]c(=S)o1)Nc1ccccc1C(F)(F)F`: the GI50 in the assay on LXFL 529 is > 100 µM (inactive); in the assay with TK-10, > 100 µM (inactive); in the assay on OVCAR-8, > 100 µM (inactive); in the assay on UACC-257, > 100 µM (inactive); with SNB-78 it was > 100 µM (inactive); in the assay on K562, 66.7 µM (inactive). The GI50 in the assay on HCT-15 was 20.2 µM; in the assay on SK-MEL-28, > 100 µM (inactive); with UO-31, > 100 µM (inactive); with NCI-H226, > 100 µM (inactive); in the assay with NCI-H460, > 100 µM (inactive); in the assay on COLO 205, 57.4 µM (inactive). In addition, the GI50 in the assay with SN12C, in the assay with CAKI-1 and in the assay on Malme-3M was > 100 µM (inactive) in each case.
On to `S=c1[nH]c2ccc(Br)cc2c(=S)n1-c1ccccc1`, for which the GI50 in the assay on LOX IMVI is 19.2 µM (inactive); in the assay on TK-10 it was 42.4 µM (inactive); in the assay with OVCAR-8, 30.5 µM (inactive); in the assay with UACC-257, 16.4 µM (inactive); with SNB-78, 49.3 µM (inactive); in the assay with SK-MEL-2, 16.4 µM (inactive). Also, the GI50 in the assay with K562 is 29.2 µM (inactive); in the assay with HCT-15, 16.1 µM; with SK-MEL-28, 9.89 µM (inactive); with UO-31, 16.4 µM (inactive); in the assay on NCI-H226 it was 24.5 µM (inactive); with NCI-H460, 12.6 µM (inactive). Moreover, the GI50 in the assay with COLO 205 is 22.2 µM (inactive); in the assay on SN12C, 20.6 µM (inactive); in the assay with CAKI-1 it was 29.2 µM (inactive); in the assay with Malme-3M, 17.5 µM (inactive).
For `CC(=O)C1=CSC2[C@H](NC(=O)Cc3ccccc3)C(=O)N2C1C(=O)OC(c1ccccc1)c1ccccc1` (stereo not given in full), the GI50 in the assay on LXFL 529, in the assay on TK-10, in the assay on OVCAR-8, in the assay with UACC-257, in the assay with SNB-78 and with SK-MEL-2 was > 100 µM (inactive) throughout. In addition, the GI50 with K562, in the assay on SK-MEL-28, in the assay on UO-31, in the assay with NCI-H226, in the assay on COLO 205 and in the assay on SN12C was > 100 µM (inactive) in each case. Besides, the values for the GI50 with CAKI-1 and in the assay on Malme-3M were 59 µM (inactive) and > 100 µM (inactive), respectively.
As to `Cc1ccc(C2=C(c3ccccc3)C(=O)C(c3ccccc3)=C2c2ccc(C)cc2)cc1`, the GI50 in the assay on LXFL 529 was 68.7 µM (inactive); in the assay on TK-10, 45.6 µM (inactive); in the assay on OVCAR-8, 73.6 µM (inactive); with UACC-257, 39.4 µM (inactive); in the assay on SNB-78, 31.6 µM (inactive); with SK-MEL-2, 6.79 µM (inactive). Besides, the GI50 in the assay with RXF 393 was 26.4 µM (inactive); in the assay with K562, 22.1 µM (inactive); with HCT-15 it was 32.4 µM; in the assay with SK-MEL-28, 21.9 µM (inactive); in the assay on UO-31 it was > 100 µM (inactive); with NCI-H226, 65.5 µM (inactive). In addition, the GI50 in the assay on NCI-H460 is 36.1 µM (inactive); with SN12C, 66.5 µM (inactive); in the assay on Malme-3M, 31 µM (inactive).
Regarding `CN(C)CC1CCC(CN(C)C)C(=O)C1=O` (stereo not given), the GI50 with LXFL 529 is 1.67 µM (inactive); in the assay with LOX IMVI, 8.63 µM (inactive); in the assay with TK-10, 3.6 µM (inactive); with OVCAR-8, 3.01 µM (inactive); in the assay on MDA-N, > 10 µM (inactive); in the assay with UACC-257, 2.4 µM (inactive). The GI50 in the assay on SK-MEL-2 was 19.3 µM (inactive); with RXF 393, 1.82 µM (inactive); in the assay with K562, 2.27 µM (inactive); in the assay on HCT-15 it was 3 µM; with SK-MEL-28, 8.87 µM (inactive); with UO-31, 3.48 µM (inactive). For the same compound, the GI50 in the assay with NCI-H226 is 4.41 µM (inactive); in the assay on NCI-H460, 18.8 µM (inactive); with COLO 205, 1.79 µM (inactive); in the assay with SN12C, 18.4 µM (inactive); in the assay on CAKI-1, 1.99 µM (inactive); in the assay with Malme-3M it was 1.92 µM (inactive).
Consider `COC(=O)c1cc(C)c(C)c2c1NC(=O)CNC2=O`, for which the GI50 in the assay with LXFL 529, with OVCAR-8, with UACC-257, in the assay on SNB-78, in the assay with SK-MEL-2 and with RXF 393 was > 100 µM (inactive) in each case. In addition, the GI50 with K562 was > 100 µM (inactive); with HCT-15, greater than 100 µM; with SK-MEL-28, > 100 µM (inactive); with UO-31 it was 33.5 µM (inactive); in the assay with NCI-H460, > 100 µM (inactive); in the assay with COLO 205, > 100 µM (inactive). The GI50 in the assay on SN12C and in the assay on CAKI-1 was > 100 µM (inactive) in each case.
For `CC1OC(=O)N(CCCC=C2SCCCS2)C1=O` (stereo not given), the GI50 in the assay with LXFL 529, with LOX IMVI, in the assay on TK-10, with OVCAR-8, in the assay with UACC-257 and in the assay on SNB-78 was > 100 µM (inactive) in each case. The GI50 is > 100 µM (inactive) in the assay on SK-MEL-2; > 100 µM (inactive) in the assay on RXF 393; > 100 µM (inactive) with K562; greater than 100 µM in the assay with HCT-15; > 100 µM (inactive) in the assay with SK-MEL-28; > 100 µM (inactive) in the assay with UO-31. Besides, the GI50 with NCI-H226, in the assay with NCI-H460, in the assay on COLO 205, in the assay on SN12C and with Malme-3M was > 100 µM (inactive) each time.
